This passage reports IC50 results from patent publication US20240336574A1 (LATIGO BIOTHERAPEUTICS, INC., priority 2021, published 2024).

The target in the assay is T1, recombinant human NaV1.8 stably transfected HEK cells (Homo sapiens, UniProt Q9Y5Y9).
T1 construct: expressed in transfected cells; host or cells: HEK cells, stably transfected
In words: Compound profiling on NaV1.8, human NaV1.8 cell line, SyncroPatch384PE automated patch clamp assay (Example 102, first set of compounds, Table 16). The format is cell-based. As to conditions: human NaV1.8 HEK cells, Table 16 (first set of compounds). In outline: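 Automated whole-cell patch clamp on HEK cells precultured at 30 °C one day before recording; CsF-based internal, 140 mM NaCl external. 10-point curve, 20–0.001 μM final, 0.1% DMSO, 5 min exposure. IC50 for resting (P1, −120 mV hold) and inactivated (P2, after 10 s at −40 mV) block, normalized to 250 μM tetracaine and DMSO.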

Setting [1] is: inactivated state block (P2 measurement), read-out: P2IC50.
[2] abbreviates: resting state block (P1 measurement), read-out: P1IC50.

SMILES strings stand for the structures. Where two headings read alike, the source gives them in different places.

T1 sequence (Q9Y5Y9 whole entry): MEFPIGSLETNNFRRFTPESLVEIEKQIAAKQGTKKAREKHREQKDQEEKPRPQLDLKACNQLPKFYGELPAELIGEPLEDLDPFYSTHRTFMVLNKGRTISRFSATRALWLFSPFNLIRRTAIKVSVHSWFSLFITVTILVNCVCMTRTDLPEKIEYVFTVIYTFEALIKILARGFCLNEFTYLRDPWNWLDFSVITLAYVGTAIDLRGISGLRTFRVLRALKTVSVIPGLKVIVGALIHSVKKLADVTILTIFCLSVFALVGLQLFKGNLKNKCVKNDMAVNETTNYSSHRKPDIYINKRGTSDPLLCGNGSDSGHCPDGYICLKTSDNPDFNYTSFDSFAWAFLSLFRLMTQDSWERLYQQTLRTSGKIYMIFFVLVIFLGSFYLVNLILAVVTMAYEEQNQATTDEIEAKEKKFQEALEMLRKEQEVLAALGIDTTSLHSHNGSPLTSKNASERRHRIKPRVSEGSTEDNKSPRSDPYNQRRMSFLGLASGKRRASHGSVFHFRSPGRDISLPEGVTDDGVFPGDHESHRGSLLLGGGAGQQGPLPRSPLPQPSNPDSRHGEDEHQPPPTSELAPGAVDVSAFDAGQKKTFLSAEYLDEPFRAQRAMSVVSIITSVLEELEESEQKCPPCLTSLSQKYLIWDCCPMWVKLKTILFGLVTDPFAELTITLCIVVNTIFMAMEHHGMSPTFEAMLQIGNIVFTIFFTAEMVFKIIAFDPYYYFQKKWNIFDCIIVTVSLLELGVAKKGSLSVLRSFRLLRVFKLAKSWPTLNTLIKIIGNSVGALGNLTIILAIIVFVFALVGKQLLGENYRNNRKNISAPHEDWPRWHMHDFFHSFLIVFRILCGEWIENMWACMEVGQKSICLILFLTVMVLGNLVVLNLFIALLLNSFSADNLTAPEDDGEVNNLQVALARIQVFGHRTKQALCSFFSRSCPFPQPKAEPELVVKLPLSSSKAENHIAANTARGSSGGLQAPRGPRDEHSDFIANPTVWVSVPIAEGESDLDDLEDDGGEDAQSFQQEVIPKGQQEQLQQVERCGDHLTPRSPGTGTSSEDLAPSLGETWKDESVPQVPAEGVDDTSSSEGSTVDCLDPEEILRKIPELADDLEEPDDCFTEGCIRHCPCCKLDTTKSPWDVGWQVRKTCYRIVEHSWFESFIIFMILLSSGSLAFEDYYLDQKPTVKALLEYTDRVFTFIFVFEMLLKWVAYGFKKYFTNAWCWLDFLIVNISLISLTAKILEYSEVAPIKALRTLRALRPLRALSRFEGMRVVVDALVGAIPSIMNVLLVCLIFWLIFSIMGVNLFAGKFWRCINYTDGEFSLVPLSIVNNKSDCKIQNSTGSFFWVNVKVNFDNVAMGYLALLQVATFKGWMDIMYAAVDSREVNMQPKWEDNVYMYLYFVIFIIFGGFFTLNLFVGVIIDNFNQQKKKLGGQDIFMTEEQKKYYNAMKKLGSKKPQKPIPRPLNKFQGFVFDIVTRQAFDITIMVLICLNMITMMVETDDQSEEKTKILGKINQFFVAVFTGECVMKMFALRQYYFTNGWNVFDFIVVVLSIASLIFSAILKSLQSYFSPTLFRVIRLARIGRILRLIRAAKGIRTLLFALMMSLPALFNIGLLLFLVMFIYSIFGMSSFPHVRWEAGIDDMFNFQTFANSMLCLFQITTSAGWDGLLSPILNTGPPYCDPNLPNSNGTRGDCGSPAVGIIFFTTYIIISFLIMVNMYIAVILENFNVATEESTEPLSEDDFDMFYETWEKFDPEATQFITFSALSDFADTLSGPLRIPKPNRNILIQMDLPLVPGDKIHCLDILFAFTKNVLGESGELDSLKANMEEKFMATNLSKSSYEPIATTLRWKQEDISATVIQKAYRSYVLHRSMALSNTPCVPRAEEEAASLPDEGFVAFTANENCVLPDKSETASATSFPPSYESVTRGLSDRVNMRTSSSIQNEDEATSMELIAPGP

Consider `Cc1c(C(F)(F)F)nnc(Oc2ccc(OC3CCC3)c(F)c2F)c1C(=O)Nc1cccc(S(C)(=N)=O)c1` (stereo not drawn) [Compound 1492, 3-[4-(cyclobutoxy)-2,3-difluoro-phenoxy]-5-methyl-N-[3-(methylsulfonimidoyl)phenyl]-6-(trifluoromethyl)pyridazine-4-carboxamide], for which the IC50 was no more than 20 nM under setting [1] and no more than 20 nM under setting [2]. For `COc1cc(C#N)ccc1Oc1nnc(C(F)(F)F)c(C)c1C(=O)Nc1cccc(S(C)(=N)=O)c1` (stereo not drawn) [Compound 25], the IC50 by setting is: under setting [1], no more than 20 nM; under setting [2], no more than 20 nM. As to `CS(=N)(=O)c1cccc(NC(=O)c2cc(C(F)(F)F)cnc2Oc2cccnc2OC(F)(F)F)c1` (stereo not drawn) [Compound 1636], the IC50 was no more than 20 nM under setting [1] and no more than 20 nM under setting [2]. For `Cc1cc(F)ccc1Oc1nnc(C(F)(F)F)c(N2CCCCC2)c1C(=O)Nc1cccc([S@@](C)(=N)=O)c1` [Compound 1732, (S)-3-(4-fluoro-2-methylphenoxy)-N-(3-(S-methylsulfonimidoyl)phenyl)-5-(piperidin-1-yl)-6-(trifluoromethyl)pyridazine-4-carboxamide], the IC50 by setting is: under setting [1], 200 to 500 nM; under setting [2], 200 to 500 nM.

Consider `CS(=N)(=O)c1cccc(NC(=O)c2cc(C(F)(F)F)cnc2Oc2cccnc2OC(F)(F)F)c1` (single isomer, unassigned) [Compound 1642], for which the IC50 under setting [1] was no more than 20 nM and the IC50 under setting [2] was no more than 20 nM. Turning to `CC(C)Oc1ccc(Oc2ncc(C(F)(F)F)cc2C(=O)Nc2cccc(S(C)(=N)=O)c2)c(F)c1` (stereo not drawn) [Compound 1706], the IC50 reads like this: under setting [1], 200 to 500 nM; under setting [2], 200 to 500 nM. Regarding `Cc1cc(F)ccc1Oc1nnc(C#N)c(C)c1C(=O)Nc1cccc(S(C)(=N)=O)c1` (stereo not drawn) [Compound 1432, 6-cyano-3-(4-fluoro-2-methyl-phenoxy)-5-methyl-N-[3-(methylsulfonimidoyl)phenyl]pyridazine-4-carboxamide], the IC50 lay within 200 to 500 nM under setting [1] and 200 to 500 nM under setting [2]. In the case of `Cc1nc(OC2CCC2)ccc1Oc1nnc(C(F)(F)F)c(C)c1C(=O)Nc1cccc(S(C)(=N)=O)c1` (single isomer, unassigned) [Compound 1499, 3-((6-cyclobutoxy-2-methylpyridin-3-yl)oxy)-5-methyl-N-(3-(S-methylsulfonimidoyl)phenyl)-6-(trifluoromethyl)pyridazine-4-carboxamide], the IC50 was in the range of 40 to 200 nM under setting [1] and 40 to 200 nM under setting [2]. `Cc1c(C(F)(F)F)nnc(Oc2ccc(OC(C)C)c(F)c2F)c1C(=O)Nc1cccc(C(N)=O)c1` [Compound 1409]: the IC50 under setting [1] is no more than 20 nM and the IC50 under setting [2] was no more than 20 nM. For the compound `COc1c(Oc2nnc(C(F)(F)F)c(C)c2C(=O)Nc2ccc[n+]([O-])c2)ccc(F)c1F` [Compound 1476, 3-(3,4-difluoro-2-methoxy-phenoxy)-5-methyl-N-(1-oxidopyridin-1-ium-3-yl)-6-(trifluoromethyl)pyridazine-4-carboxamide], the IC50 under setting [1] was no more than 20 nM and the IC50 under setting [2] is no more than 20 nM.

`COc1cc(C#N)ccc1Oc1nnc(-c2nccs2)c(C)c1C(=O)Nc1cccc(S(C)(=N)=O)c1` (stereo not drawn) [Compound 1463, 3-(4-cyano-2-methoxy-phenoxy)-5-methyl-N-[3-(methylsulfonimidoyl)phenyl]-6-thiazol-2-yl-pyridazine-4-carboxamide]: the IC50 reads like this: under setting [1], no more than 20 nM; under setting [2], no more than 20 nM.

On to `Cc1cc(F)ccc1Oc1nncc(C)c1C(=O)Nc1cccc(S(C)(=N)=O)c1` (stereo not drawn) [Compound 1553, 3-(4-fluoro-2-methyl-phenoxy)-5-methyl-N-[3-(methylsulfonimidoyl)phenyl]pyridazine-4-carboxamide], for which the IC50 reads like this: under setting [1], 200 to 500 nM; under setting [2], 200 to 500 nM. In the case of `COc1cc(C#N)ccc1Oc1nc(C(F)(F)F)nc(C)c1C(=O)Nc1cccc(S(C)(=N)=O)c1` (stereo not drawn) [Compound 1743, 4-(4-cyano-2-methoxy-phenoxy)-6-methyl-N-[3-(methylsulfonimidoyl)phenyl]-2-(trifluoromethyl)pyrimidine-5-carboxamide], the IC50 is no more than 20 nM under setting [1] and no more than 20 nM under setting [2]. Turning to `CC(C)Oc1ccc(Oc2ncc(C(F)(F)F)cc2C(=O)Nc2cccc(S(C)(=N)=O)c2)cc1F` (stereo not drawn) [Compound 1647], the IC50 is no more than 20 nM under setting [1] and no more than 20 nM under setting [2]. Regarding `CC(=O)N=[S@](C)(=O)c1cccc(NC(=O)c2cc(C(F)(F)F)cnc2Oc2ccc(F)cc2C)c1` [Compound 1716, N-[3-(N-acetyl-S-methyl-sulfonimidoyl)phenyl]-2-(4-fluoro-2-methyl-phenoxy)-5-(trifluoromethyl)pyridine-3-carboxamide], the IC50 under setting [1] is no more than 20 nM and the IC50 under setting [2] was no more than 20 nM. With `Cc1ccc(Oc2ncc(C(F)(F)F)cc2C(=O)Nc2cccc(C(N)=O)c2)c(OC(F)F)n1` [Compound 1691], the IC50 runs as follows: under setting [1], 40 to 200 nM; under setting [2], 40 to 200 nM.

Consider `Cc1cc(OC(F)(F)F)ccc1Oc1ncc(C(F)(F)F)cc1C(=O)Nc1cccc(S(C)(=O)=O)c1` [Compound 1573, N-(3-methylsulfonylpheny1)-2-[2-methyl-4-(trifluoromethoxy)phenoxy]-5-(trifluoromethyl)pyridine-3-carboxamide], for which the IC50 runs as follows: under setting [1], no more than 20 nM; under setting [2], no more than 20 nM.

`COc1c(Oc2nnc(C(F)(F)F)c(C)c2C(=O)Nc2cccc(S(C)(=N)=O)c2)ccc(F)c1F` (stereo not drawn) [Compound 23]: the IC50 was 20 to 40 nM under setting [1] and no more than 20 nM under setting [2]. The corresponding values for `Cc1c(C(F)(F)F)nnc(Oc2ccc(OC(F)(F)F)cc2F)c1C(=O)Nc1cccc(S(C)(=O)=O)c1` [Compound 1467, 3-[2-fluoro-4-(trifluoromethoxy)phenoxy]-N-(3-methanesulfonylphenyl)-5-methyl-6-(trifluoromethyl)pyridazine-4-carboxamide] are no more than 20 nM and no more than 20 nM. The corresponding values for `COc1cc(C#N)ccc1Oc1nnc(C(F)(F)F)c(C)c1C(=O)Nc1cccc(C(=O)NCC2(F)CC2)c1` [Compound 1440, 3-(4-cyano-2-methoxy-phenoxy)-N-[3-[(1-fluorocyclopropyl)methylcarbamoyl]phenyl]-5-methyl-6-(trifluoromethyl)pyridazine-4-carboxamide] are 200 to 500 nM and 200 to 500 nM.

For the compound `COc1cc(C#N)ccc1Oc1nnc(C(F)(F)F)c(C)c1C(=O)Nc1cccc(C#N)c1` [Compound 1548, 3-(4-cyano-2-methoxy-phenoxy)-N-(3-cyanophenyl)-5-methyl-6-(trifluoromethyl)pyridazine-4-carboxamide], the IC50 is, setting by setting: under setting [1], 20 to 40 nM; under setting [2], 20 to 40 nM. As for `CS(=O)(=O)c1cccc(NC(=O)c2cc(C(F)(F)F)cnc2OCC23CC(F)(C2)C3)c1` [Compound 1629], the IC50 by setting is: under setting [1], 40 to 200 nM; under setting [2], 40 to 200 nM. `CS(=O)(=O)c1cccc(NC(=O)c2cc(C(F)(F)F)cnc2Oc2cccc3c2OCCC3)c1` [Compound 1626]: the IC50 lay in the range of 200 to 500 nM under setting [1] and 200 to 500 nM under setting [2]. Regarding `CS(=N)(=O)c1cccc(NC(=O)c2cc(C(F)(F)F)cnc2Oc2cccnc2OC(F)(F)F)c1` (single isomer, unassigned) [Compound 1643], under setting [2], the IC50 was no more than 20 nM.

As for `NC(=O)c1cccc(NC(=O)c2cc(C(F)(F)F)cnc2Oc2cnc(C(F)(F)F)nc2)c1` [Compound 1695], the IC50 under setting [1] fell in the range of 200 to 500 nM and the IC50 under setting [2] was 200 to 500 nM.

In the case of `COc1cc(F)c(Oc2ncc(C(F)(F)F)cc2C(=O)Nc2cccc(C(N)=O)c2)cc1F` [Compound 1638], the IC50 is 200 to 500 nM under setting [1] and 200 to 500 nM under setting [2]. Take `Cc1cc(F)ccc1Oc1nnc(C(F)(F)F)c(C)c1C(=O)Nc1ccnc(C(N)=O)c1` [Compound 1408]: the IC50 under setting [1] fell in the range of 40 to 200 nM and the IC50 under setting [2] fell in the range of 40 to 200 nM.

As to `Cc1nc(C(F)(F)F)ccc1Oc1nnc(C(F)(F)F)c(C)c1C(=O)Nc1cccc(S(C)(=O)=O)c1` [Compound 1468, N-(3-methanesulfonylphenyl)-5-methyl-3-{[2-methyl-6-(trifluoromethyl)pyridin-3-yl]oxy}-6-(trifluoromethyl)pyridazine-4-carboxamide], the IC50 was no more than 20 nM under setting [1] and no more than 20 nM under setting [2].

As for `COc1cc(C#N)ccc1Oc1nnc(-c2ncco2)c(C)c1C(=O)Nc1cccc(S(C)(=N)=O)c1` (stereo not drawn) [Compound 1462, 3-(4-cyano-2-methoxy-phenoxy)-5-methyl-N-[3-(methylsulfonimidoyl)phenyl]-6-oxazol-2-yl-pyridazine-4-carboxamide; formic acid], the IC50 reads like this: under setting [1], 200 to 500 nM; under setting [2], 200 to 500 nM. Take `CS(=O)(=O)c1cccc(NC(=O)c2cc(C(F)(F)F)cnc2OCC2CC2)c1` [Compound 1602]: the IC50 under setting [1] is 200 to 500 nM and the IC50 under setting [2] was 200 to 500 nM. In the case of `COc1cc(F)c(F)cc1Oc1ncc(C(F)(F)F)cc1C(=O)Nc1cccc(S(C)(=O)=O)c1` [Compound 1615], the IC50 is no more than 20 nM under setting [1] and no more than 20 nM under setting [2].

For the compound `Cc1cc(F)ccc1Oc1nccc(C(F)(F)F)c1C(=O)Nc1cccc(S(C)(=N)=O)c1` (stereo not drawn) [Compound 1650], the IC50 is, setting by setting: under setting [1], 40 to 200 nM; under setting [2], 40 to 200 nM. As to `COc1c(Oc2ncc(C(F)(F)F)cc2C(=O)Nc2cccc(S(C)(=N)=O)c2)ccc(F)c1F` (stereo not drawn) [Compound 1630], the IC50 by setting is: under setting [1], no more than 20 nM; under setting [2], no more than 20 nM. In the case of `COc1cc(C#N)ccc1Oc1nnc(C(F)(F)F)c(C)c1C(=O)Nc1cccc(C(=O)N2CC(O)C2)c1` [Compound 1437, 3-(4-cyano-2-methoxy-phenoxy)-N-[3-(3-hydroxyazetidine-1-carbonyl)phenyl]-5-methyl-6-(trifluoromethyl)pyridazine-4-carboxamide], the IC50 is, setting by setting: under setting [1], 40 to 200 nM; under setting [2], 40 to 200 nM. Consider `NC(=O)c1ccc(NC(=O)c2cc(C(F)(F)F)cnc2OC2CC(C(F)(F)F)C2)cc1` (mixture of isomers) [Compound 1670], for which the IC50 runs as follows: under setting [1], 200 to 500 nM; under setting [2], 200 to 500 nM.
